Measured values from ChEMBL document CHEMBL5316329, “Structure-Based Optimization of 2,4,5-Trisubstituted Pyrimidines as Potent HIV-1 Non-Nucleoside Reverse Transcriptase Inhibitors: Exploiting the Tolerant Regions of the Non-Nucleoside Reverse Transcriptase Inhibitors' Binding Pocket” (J Med Chem, 2023).

What was measured:
[1] = Tmax in Sprague-Dawley rat at 10 mg/kg, po; type: ADME, organism-based; conditions: in vivo
[2] = system: Human immunodeficiency virus 1; experiment: Antiviral activity against NNRTI-resistant HIV-1 RES056 infected in human MT4 cells assessed as virus-induced cytopathicity treated for 5 days by MTT assay; type: functional, organism-based; conditions: Human immunodeficiency virus 1, RES056, MT4, 120 h
[3] = AUC (0 to t) in Sprague-Dawley rat at 2 mg/kg, iv; type: ADME, organism-based; parameters: dose 2 mg/kg, route iv; conditions: in vivo
[4] = Tmax in Sprague-Dawley rat at 2 mg/kg, iv; type: ADME, organism-based; conditions: in vivo
[5] = Oral bioavailability in Sprague-Dawley rat at 10 mg/kg; type: ADME, organism-based; conditions: in vivo
[6] = Acute toxicity in Kunming mouse assessed as poisoning symptoms at 2000 mg/kg, po measured after 7 days; type: organism-based; conditions: in vivo, 168 h, time 7 day
[7] = Cmax in Sprague-Dawley rat at 10 mg/kg, po; type: ADME, organism-based; parameters: dose 10 mg/kg, route po; conditions: in vivo
[8] = system: Human immunodeficiency virus 1; experiment: Antiviral activity against HIV-1 harboring L100I mutant infected in human MT4 cells assessed as virus-induced cytopathicity treated for 5 days by MTT assay; type: functional, organism-based; conditions: Human immunodeficiency virus 1, MT4, 120 h
[9] = system: Human immunodeficiency virus 1; experiment: Antiviral activity against HIV-1 harboring Y181C mutant infected in human MT4 cells assessed as virus-induced cytopathicity treated for 5 days by MTT assay; type: functional, organism-based; conditions: Human immunodeficiency virus 1, MT4, 120 h
[10] = Acute toxicity in Kunming mouse assessed as mortality at 2000 mg/kg, po measured after 7 days; type: organism-based; conditions: in vivo, 168 h, time 7 day
[11] = AUC (0 to infinity) in Sprague-Dawley rat at 2 mg/kg, iv; type: ADME, organism-based; parameters: dose 2 mg/kg, route iv; conditions: in vivo
[12] = system: Human immunodeficiency virus 1; experiment: Antiviral activity against HIV-1 harboring K103N mutant infected in human MT4 cells assessed as virus-induced cytopathicity treated for 5 days by MTT assay; type: functional, organism-based; conditions: Human immunodeficiency virus 1, MT4, 120 h
[13] = target: Cytochrome P450 2D6 (Homo sapiens, UniProt P10635); experiment: Inhibition of CYP2D6 (unknown origin); type: ADME
Chain of Cytochrome P450 2D6 (P10635 whole entry): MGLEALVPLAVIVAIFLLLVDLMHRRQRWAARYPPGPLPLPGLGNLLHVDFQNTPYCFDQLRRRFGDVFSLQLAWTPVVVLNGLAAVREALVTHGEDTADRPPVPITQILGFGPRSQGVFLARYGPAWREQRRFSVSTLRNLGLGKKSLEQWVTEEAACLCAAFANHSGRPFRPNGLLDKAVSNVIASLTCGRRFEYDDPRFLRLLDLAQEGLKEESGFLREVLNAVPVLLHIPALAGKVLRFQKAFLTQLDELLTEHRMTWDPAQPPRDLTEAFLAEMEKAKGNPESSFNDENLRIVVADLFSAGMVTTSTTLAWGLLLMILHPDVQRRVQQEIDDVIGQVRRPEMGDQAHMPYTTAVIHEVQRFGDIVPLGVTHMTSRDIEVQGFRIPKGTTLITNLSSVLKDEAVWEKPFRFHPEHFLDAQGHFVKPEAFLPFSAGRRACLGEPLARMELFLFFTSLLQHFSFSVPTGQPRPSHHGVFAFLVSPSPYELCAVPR

[14] = Selectivity index, ratio of CC50 for human MT4 cells to EC50 for NNRTI-resistant HIV-1 RES056 infected in human MT4 cells; type: toxicity, cell-based; conditions: read-out: Selectivity Index
[15] = target: Cytochrome P450 2C19 (Homo sapiens, UniProt P33261); experiment: Inhibition of CYP2C19 (unknown origin); type: ADME
Chain of Cytochrome P450 2C19 (P33261 whole entry): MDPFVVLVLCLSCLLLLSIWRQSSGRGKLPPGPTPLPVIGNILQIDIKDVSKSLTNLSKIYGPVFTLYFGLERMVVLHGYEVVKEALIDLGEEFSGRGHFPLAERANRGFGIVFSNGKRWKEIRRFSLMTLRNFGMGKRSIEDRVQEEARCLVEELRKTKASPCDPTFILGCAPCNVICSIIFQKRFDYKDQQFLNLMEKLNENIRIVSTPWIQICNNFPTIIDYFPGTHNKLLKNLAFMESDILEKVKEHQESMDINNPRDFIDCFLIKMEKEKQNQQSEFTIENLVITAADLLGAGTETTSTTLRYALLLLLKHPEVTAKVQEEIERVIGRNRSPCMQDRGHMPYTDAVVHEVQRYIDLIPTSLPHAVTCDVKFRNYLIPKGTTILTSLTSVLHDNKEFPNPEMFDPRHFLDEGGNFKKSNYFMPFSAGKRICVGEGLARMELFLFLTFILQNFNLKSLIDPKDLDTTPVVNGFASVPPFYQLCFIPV

[16] = AUC (0 to infinity) in Sprague-Dawley rat at 10 mg/kg, po; type: ADME, organism-based; parameters: dose 10 mg/kg, route po; conditions: in vivo
[17] = AUC (0 to t) in Sprague-Dawley rat at 10 mg/kg, po; type: ADME, organism-based; parameters: dose 10 mg/kg, route po; conditions: in vivo
[18] = Cytotoxicity against human MT4 cells assessed as reduction in cell viability treated for 5 days by MTT assay; type: toxicity, cell-based; conditions: time 5 day
[19] = target: Human immunodeficiency virus type 1 reverse transcriptase (Human immunodeficiency virus 1, UniProt Q72547); experiment: Inhibition of wild-type HIV-1 reverse transcriptase assessed as inhibition of biotin-dUTP incorporation
[20] = Half life in Sprague-Dawley rat at 10 mg/kg, po; type: ADME, organism-based; conditions: in vivo
[21] = system: Human immunodeficiency virus 1; experiment: Antiviral activity against HIV-1 harboring K103N/Y181C mutant infected in human MT4 cells assessed as virus-induced cytopathicity treated for 5 days by MTT assay; type: functional, organism-based; conditions: Human immunodeficiency virus 1, MT4, 120 h
[22] = system: Human immunodeficiency virus 1; experiment: Antiviral activity against HIV-1 E138K mutant infected in human MT4 cells assessed as virus-induced cytopathicity treated for 5 days by MTT assay; type: functional, organism-based; conditions: Human immunodeficiency virus 1, MT4, 120 h
[23] = Acute toxicity in Kunming mouse assessed as body weight change at 2000 mg/kg, po measured after 7 days; type: organism-based; conditions: in vivo, 168 h, time 7 day
[24] = Selectivity index, ratio of CC50 for human MT4 cells to EC50 for wild-type HIV-1 IIIB infected in human MT4 cells; type: toxicity, cell-based; conditions: read-out: Selectivity Index
[25] = target: T1, Cytochrome P450 1A2 (Homo sapiens, UniProt P05177); experiment: Inhibition of CYP1A2 (unknown origin); type: ADME
T1 sequence (P05177 whole entry): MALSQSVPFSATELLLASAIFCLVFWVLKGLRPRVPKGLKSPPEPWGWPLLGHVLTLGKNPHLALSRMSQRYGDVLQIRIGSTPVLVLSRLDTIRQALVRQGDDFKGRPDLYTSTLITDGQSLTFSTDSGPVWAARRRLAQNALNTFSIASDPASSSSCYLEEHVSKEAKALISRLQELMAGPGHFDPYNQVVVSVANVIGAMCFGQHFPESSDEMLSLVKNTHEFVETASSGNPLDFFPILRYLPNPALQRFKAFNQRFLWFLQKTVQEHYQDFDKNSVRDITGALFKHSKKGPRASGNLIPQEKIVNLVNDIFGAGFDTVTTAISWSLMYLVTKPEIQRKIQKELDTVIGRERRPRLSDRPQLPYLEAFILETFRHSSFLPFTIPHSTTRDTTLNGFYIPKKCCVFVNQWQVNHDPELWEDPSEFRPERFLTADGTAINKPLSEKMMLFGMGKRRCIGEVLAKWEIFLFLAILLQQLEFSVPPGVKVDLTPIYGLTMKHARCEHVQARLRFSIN

[26] = Clearance in Sprague-Dawley rat at 2 mg/kg, iv; type: ADME, organism-based; conditions: in vivo
[27] = system: Human immunodeficiency virus 1; experiment: Antiviral activity against wild-type HIV-1 IIIB infected in human MT4 cells assessed as virus-induced cytopathicity treated for 5 days by MTT assay; type: functional, organism-based; conditions: Human immunodeficiency virus 1, IIIB, MT4, 120 h
[28] = system: Human immunodeficiency virus 1; experiment: Antiviral activity against HIV-1 harboring Y188L mutant infected in human MT4 cells assessed as virus-induced cytopathicity treated for 5 days by MTT assay; type: functional, organism-based; conditions: Human immunodeficiency virus 1, MT4, 120 h
[29] = Cmax in Sprague-Dawley rat at 2 mg/kg, iv; type: ADME, organism-based; parameters: dose 2 mg/kg, route iv; conditions: in vivo
[30] = system: Human immunodeficiency virus 1; experiment: Antiviral activity against HIV-1 F227L/V106A mutant infected in human MT4 cells assessed as virus-induced cytopathicity treated for 5 days by MTT assay; type: functional, organism-based; conditions: Human immunodeficiency virus 1, MT4, 120 h
[31] = target: Cytochrome P450 2C9 (Homo sapiens, UniProt P11712); experiment: Inhibition of CYP2C9 (unknown origin); type: ADME
Chain of Cytochrome P450 2C9 (P11712 whole entry): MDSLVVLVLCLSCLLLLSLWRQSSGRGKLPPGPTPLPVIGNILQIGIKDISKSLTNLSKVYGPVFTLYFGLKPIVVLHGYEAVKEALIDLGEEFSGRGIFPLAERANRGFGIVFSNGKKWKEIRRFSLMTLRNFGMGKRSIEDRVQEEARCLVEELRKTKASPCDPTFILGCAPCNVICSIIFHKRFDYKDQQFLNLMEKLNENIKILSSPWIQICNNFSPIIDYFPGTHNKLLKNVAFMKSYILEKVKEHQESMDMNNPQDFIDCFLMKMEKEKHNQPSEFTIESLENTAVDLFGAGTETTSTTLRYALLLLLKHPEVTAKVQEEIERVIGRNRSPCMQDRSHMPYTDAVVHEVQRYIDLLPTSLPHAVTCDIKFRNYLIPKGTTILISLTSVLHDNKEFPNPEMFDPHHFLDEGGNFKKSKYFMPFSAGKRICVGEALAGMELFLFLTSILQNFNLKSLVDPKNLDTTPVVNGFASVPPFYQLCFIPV

[32] = Half life in Sprague-Dawley rat at 2 mg/kg, iv; type: ADME, organism-based; conditions: in vivo
[33] = target: Cytochrome P450 3A4 (Homo sapiens, UniProt P08684); experiment: Inhibition of CYP3A4 (unknown origin) using midazolam as substrate; type: ADME
Chain of Cytochrome P450 3A4 (P08684 whole entry): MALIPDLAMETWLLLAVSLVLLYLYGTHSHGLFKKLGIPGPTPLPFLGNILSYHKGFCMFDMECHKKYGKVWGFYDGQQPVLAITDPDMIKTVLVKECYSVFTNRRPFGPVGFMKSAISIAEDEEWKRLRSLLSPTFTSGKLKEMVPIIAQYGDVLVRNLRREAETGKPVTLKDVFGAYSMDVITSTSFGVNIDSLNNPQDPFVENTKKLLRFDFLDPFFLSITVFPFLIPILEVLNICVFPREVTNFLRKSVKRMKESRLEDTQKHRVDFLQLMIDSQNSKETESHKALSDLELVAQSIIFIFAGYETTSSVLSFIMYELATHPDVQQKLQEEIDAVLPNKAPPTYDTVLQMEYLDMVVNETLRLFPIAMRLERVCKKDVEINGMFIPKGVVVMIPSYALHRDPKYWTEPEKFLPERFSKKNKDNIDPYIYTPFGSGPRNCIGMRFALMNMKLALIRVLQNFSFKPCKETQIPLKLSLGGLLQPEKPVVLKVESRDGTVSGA

SMILES: Cc1cc(/C=C/C#N)cc(C)c1Cc1nc(NC2CCN(Cc3ccc(C(N)=O)cc3)CC2)ncc1-c1cncnc1
- Tmax [1]: 2 h
- EC50 [2]: 10.1 nM
- AUC(0-t) [3]: 400 ng·h/mL
- Tmax [4]: 1.98 min
- bioavailability [5]: 31.8%
- Activity [6]: Non-Toxic
- Cmax [7]: 252 ng/mL
- EC50 ([8]; read-out: EC50): 3.43 nM
- EC50 ([8]; read-out: pEC50 (converted)): 3.47 nM
- EC50 ([9]; read-out: EC50): 5.88 nM
- EC50 ([9]; read-out: pEC50 (converted)): 5.89 nM
- Activity [10]: Non-Toxic
- AUC(0-inf) [11]: 403 ng·h/mL
- EC50 ([12]; read-out: EC50): 4.77 nM
- EC50 ([12]; read-out: pEC50 (converted)): 4.79 nM
- IC50 [13]: 42500 nM
- selectivity ratio [14]: 2270
- IC50 [15]: > 50000 nM
- AUC(0-inf) [16]: 642 ng·h/mL
- AUC(0-t) [17]: 654 ng·h/mL
- CC50 at 120 h [18]: 22800 nM
- EC50 [19]: 4.9 nM
- IC50 [19]: 121 nM
- half-life [20]: 1.2 h
- EC50 [21]: 10 nM
- EC50 ([22]; read-out: EC50): 9.49 nM
- EC50 ([22]; read-out: pEC50 (converted)): 9.55 nM
- Activity [23]: Non-Toxic
- selectivity ratio [24]: 4630
- IC50 [25]: > 50000 nM
- clearance [26]: 82.7 mL/min/kg
- EC50 [27]: 4.95 nM
- EC50 ([28]; read-out: EC50): 15.3 nM
- EC50 ([28]; read-out: pEC50 (converted)): 15.5 nM
- Cmax [29]: 587 ng/mL
- EC50 ([30]; read-out: EC50): 11.8 nM
- EC50 ([30]; read-out: pEC50 (converted)): 12 nM
- IC50 [31]: 18900 nM
- half-life [32]: 1.33 h
- IC50 [33]: 10900 nM

SMILES: Cc1cc(/C=C/C#N)cc(C)c1Cc1nc(NC2CCN(Cc3ccc(S(C)(=O)=O)cc3)CC2)ncc1-c1cncnc1
- EC50 [2]: 14 nM
- EC50 ([8]; read-out: EC50): 3.14 nM
- EC50 ([9]; read-out: EC50): 5.45 nM
- EC50 ([12]; read-out: EC50): 3.6 nM
- IC50 [13]: 25800 nM
- selectivity ratio [14]: 207
- IC50 [15]: > 50000 nM
- CC50 at 120 h [18]: 2900 nM
- IC50 [19]: 104 nM
- EC50 ([22]; read-out: EC50): 5.95 nM
- selectivity ratio [24]: 796
- IC50 [25]: > 50000 nM
- EC50 [27]: 3.65 nM
- EC50 ([28]; read-out: EC50): 22.1 nM
- EC50 ([30]; read-out: EC50): 9.14 nM
- IC50 [31]: 9580 nM
- IC50 [33]: 6540 nM

SMILES: Cc1cc(/C=C/C#N)cc(C)c1Oc1nc(NC2CCN(Cc3ccc(C(N)=O)cc3)CC2)ncc1-c1ccc2c(c1)OCO2
- EC50 [2]: 38.3 nM
- EC50 ([8]; read-out: EC50): 8.21 nM
- EC50 ([9]; read-out: EC50): 9.42 nM
- EC50 ([12]; read-out: EC50): 5.64 nM
- selectivity ratio [14]: 139
- CC50 at 120 h [18]: 5320 nM
- IC50 [19]: 110 nM
- EC50 ([22]; read-out: EC50): 19.4 nM
- selectivity ratio [24]: 1280
- EC50 [27]: 4.17 nM
- EC50 ([28]; read-out: EC50): 58.1 nM
- EC50 ([30]; read-out: EC50): 46.9 nM

SMILES: Cc1cc(/C=C/C#N)cc(C)c1Oc1nc(NC2CCN(Cc3ccc(C(N)=O)cc3)CC2)ncc1-c1ccc(N)cc1
- EC50 [2]: 18.9 nM
- EC50 ([8]; read-out: EC50): 3.31 nM
- EC50 ([9]; read-out: EC50): 4.81 nM
- EC50 ([12]; read-out: EC50): 3.53 nM
- selectivity ratio [14]: 207
- CC50 at 120 h [18]: 3910 nM
- IC50 [19]: 108 nM
- EC50 ([22]; read-out: EC50): 5.05 nM
- selectivity ratio [24]: 1140
- EC50 [27]: 3.41 nM
- EC50 ([28]; read-out: EC50): 22.8 nM
- EC50 ([30]; read-out: EC50): 9.18 nM

SMILES: Cc1cc(/C=C/C#N)cc(C)c1Oc1nc(NC2CCN(Cc3ccc(C(N)=O)cc3)CC2)ncc1-c1cccc(N)c1
- EC50 [2]: 22.4 nM
- EC50 ([8]; read-out: EC50): 11 nM
- EC50 ([9]; read-out: EC50): 10.1 nM
- EC50 ([12]; read-out: EC50): 5.62 nM
- selectivity ratio [14]: 373
- CC50 at 120 h [18]: 8370 nM
- IC50 [19]: 138 nM
- EC50 ([22]; read-out: EC50): 9.11 nM
- selectivity ratio [24]: 1480
- EC50 [27]: 5.66 nM
- EC50 ([28]; read-out: EC50): 51 nM
- EC50 ([30]; read-out: EC50): 16.6 nM
